Test results published in patent US5846720A, “Methods of determining chemicals that modulate expression of genes associated with cardiovascular disease” (Oncogene Science, Inc., priority 1996, dated 1998).

Columns and labels:
hGH promoter = assay: hGH promoter/luciferase reporter assay (high-throughput screen I), 532 cells; type: cell-based, rat; conditions: Table 2, 6 h incubation; for hGH fold induction relative to solvent control: transcriptional activators; for hGH fold inhibition relative to solvent control: transcriptional inhibitors
Excerpt: 6. a GC rat pituitary cell line, transfected with the growth hormone reporter plasmid, designated 532, deposited under ATCC Accession No. CRL 10663.

MMTV promoter = assay: MMTV promoter/luciferase reporter assay (high-throughput screen I, control for specificity), M10 cells; type: cell-based, mouse; conditions: Table 2, 6 h incubation; for MMTV fold induction relative to solvent control: transcriptional activators, original high-throughput assay; for MMTV fold inhibition relative to solvent control: transcriptional inhibitors
Protocol: pMluci and pSV2Neo, an antibiotic resistance plasmid (84), were co-transfected into NIH/3T3 mouse fibroblast cells using the calcium phosphate precipitation method (85) with a commercially available kit (Pharmacia, Piscataway N.J.). Two days later, cells were transferred to media containing 0.4 mg/ml G418 and were grown for an additional 10-14 days. G418-resistant clones were isolated by standard methods. Once sufficient cell numbers were obtained, clones were analyzed based on several criteria: constitutive luciferase production, induction of luciferase expression by dexamethasone ([…], Sigma, St. Louis, Mo.), satisfactory attachment to microtiter plates used in the high-throughput screen (see section G) and acceptable standard deviation in multiple luciferase expression assays (see below for assay protocol). This analysis was carried out using the luciferase assay conditions described above. Of the clones which satisfied the above criteria for the high throughput screen, one clone, M10, was selected for use.

G-CSF promoter = assay: G-CSF promoter/luciferase reporter assay (high-throughput screen I), G21 cells; conditions: Table 2, 6 h incubation; for GCSF fold induction relative to solvent control: transcriptional activators; for GCSF fold inhibition relative to solvent control: transcriptional inhibitors

Structure (SMILES)	hGH fold induction relative to solvent control (hGH promoter)	MMTV fold induction relative to solvent control (MMTV promoter)	GCSF fold induction relative to solvent control (G-CSF promoter)	hGH fold inhibition relative to solvent control (hGH promoter)	MMTV fold inhibition relative to solvent control (MMTV promoter)	GCSF fold inhibition relative to solvent control (G-CSF promoter)
Nc1nccs1 [Chemical 1550]	5.44 fold	0.87 fold	0.04 fold	–	–	–
NC1=NCCS1 [Chemical 1552]	7.26 fold	0.52 fold	1.23 fold	–	–	–
Nc1c(Cl)c(Cl)nc(C(=O)O)c1Cl [Chemical 1561]	8.05 fold	0.48 fold	0.23 fold	–	–	–
Brc1ccc2c3c(cccc13)CC2 [Chemical 1573]	0.34 fold	4.30 fold	1.49 fold	–	–	–
Nc1ncnc2c1nc(Br)n2[C@@H]1O[C@H](CO)[C@@H](O)[C@H]1O [Chemical 1583]	0.12 fold	0.88 fold	5.82 fold	–	–	–
Cc1ccc(P(CCP(c2ccc(C)cc2)c2ccc(C)cc2)c2ccc(C)cc2)cc1 [Chemical 1591]	–	–	–	5.55 fold	0.96 fold	0.56 fold
CC1(C)[C@@H](C(=O)OCC(F)(F)C(F)(F)C(F)(F)C(F)(F)C(F)(F)C(F)F)CC[C@@]1(C)C(=O)OCC(F)(F)C(F)(F)C(F)(F)C(F)(F)C(F)(F)C(F)F [Chemical 1592]	0.74 fold	1.34 fold	3.20 fold	–	–	–
O=C(Nc1cccc(C2=NCCN2)c1)Nc1cccc(C2=NCCN2)c1 [Chemical 1598]	5.32 fold	1.27 fold	0.72 fold	–	–	–
O=S(=O)(O)c1ccc(-c2nnc(-c3ccnc(-c4nnc(-c5ccc(S(=O)(=O)O)cc5)c(-c5ccc(S(=O)(=O)O)cc5)n4)c3)nc2-c2ccc(S(=O)(=O)O)cc2)cc1 [Chemical 1604]	–	–	–	5.00 fold	0.97 fold	0.77 fold
CC1(C)[C@H]2CC[C@]1(C)[C@H](O)C2 [Chemical 1635]	–	–	–	9.09 fold	0.99 fold	0.71 fold
C(=Cc1ccccn1)c1ccccn1 [Chemical 1640]	–	–	–	5.00 fold	0.59 fold	0.79 fold
c1ccc(-c2nccnc2-c2ccccn2)nc1 [Chemical 1641]	–	–	–	5.55 fold	0.60 fold	0.83 fold
O=S(=O)(O)c1ccc(-c2ccnc(-c3nnc(-c4ccc(S(=O)(=O)O)cc4)c(-c4ccc(S(=O)(=O)O)cc4)n3)c2)cc1 [Chemical 1648]	–	–	–	7.69 fold	1.00 fold	0.86 fold
COC(=O)CP(=O)(OCC(F)(F)F)OCC(F)(F)F [Chemical 1651]	–	–	–	3.57 fold	0.70 fold	0.69 fold
O=C(O)c1cc(C(F)(F)F)ccc1C(F)(F)F [Chemical 1655]	–	–	–	4.76 fold	0.81 fold	0.54 fold
OCC1CC2C3CC(CO)C(C3)C2C1 (stereo not drawn) [Chemical 1678]	7.08 fold	0.89 fold	0.36 fold	–	–	–
N#Cc1cccc(Br)c1 [Chemical 1703]	–	–	–	10.00 fold	0.90 fold	0.76 fold
N#Cc1ccc(Br)cc1 [Chemical 1704]	–	–	–	4.16 fold	0.94 fold	0.77 fold
O=C(c1ccccc1)c1ccc(Br)cc1 [Chemical 1705]	–	–	–	14.28 fold	0.62 fold	0.54 fold
Cc1cc(=O)oc2c(CN(CC(=O)O)CC(=O)O)c(O)ccc12 [Chemical 1712]	–	–	–	8.33 fold	0.94 fold	0.74 fold
CC1(C)[C@H]2CC[C@]1(C)C(=O)C2 [Chemical 1720]	–	–	–	4.76 fold	0.66 fold	0.65 fold
